Several values for one entry are separate records, joined by “and”; a condition that tells them apart may be missing. Equal values may be shown once.
Key:
[1] = Test for metabolic stability, Mouse Liver Microsomes; type: in vitro ADME; settings: for Metabolic stability mouse microsomes t½: mouse liver microsomes 1.0 mg/mL; for Metabolic stability mouse microsomes t½ / half-life at 5 μM: 5 μM test compound, NADPH; for half-life at 5 μM: mouse, liver microsomes, pH 7.4, mouse liver microsomes 1.0 mg/mL, read-out: Metabolic stability mouse microsomes t½
Procedure: (§1) The test for metabolic stability was performed by Absorption System, Exton, Pa. 19341, USA.
(§2) The test compound (DPPI inhibitor) was dissolved in 100% DMSO at a concentration of 10 mM. The reaction mixture, consisted of Mouse or Human Liver Microsomes (1.0 mg/mL), 1 mM NADPH, 100 nnM Potassium Phosphate, pH 7.4, 10 mM Magnesium Chloride and test compound at a concentration of 5 μM.
(§3) An aliquot of the reaction mixture (without cofactors) was incubated in a shaking water bath at 37° C. for 3 minutes. Another aliquot of the reaction mixture was prepared as the negative control. The test compound was added into both the reaction mixture and the negative control at a final concentration of 5 μM.
(§4) The reaction was initiated by the addition of NADPH to 1 mM (not into the negative controls) and then incubated in a shaking water bath at 37° C. Aliquots (100 μL) were withdrawn at 0, 10, 20, 30, and 60 minutes or at 0, 15, 30 and 60 minutes and combined with 900 μL of ice-cold 50/50 acetonitrile/dH2O to terminate the reaction. A control (testosterone) was run simultaneously with the test compound in a separate reaction. LC/MS/MS is used to determine the peak area response ratio (peak area corresponding to test compound or control divided by that of an analytical internal standard). The natural log of the percent remaining was plotted versus time. A linear fit was used to determine the rate constant. The fit was truncated if the percent remaining of test compound was less than 10%. The elimination half-lives associated with the disappearance of the test and control compounds were determined to compare their relative metabolic stability.

DPPI [2] = biological target: T1, DPPI (Homo sapiens, UniProt P53634); test: Human DPPI inhibition assay (Gly-Phe-paranitroanilide substrate); type: biochemical; set-up: purchased UNIZYME Laboratories A/S; settings: Table 1 potency; assay not given
T1 sequence (P53634 231-394 limits assumed): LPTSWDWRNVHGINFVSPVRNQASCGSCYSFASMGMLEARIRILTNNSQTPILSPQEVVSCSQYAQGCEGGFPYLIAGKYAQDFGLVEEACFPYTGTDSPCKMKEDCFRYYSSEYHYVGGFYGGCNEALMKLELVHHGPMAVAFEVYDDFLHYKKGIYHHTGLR
T1 sequence (P53634 25-134 limits assumed): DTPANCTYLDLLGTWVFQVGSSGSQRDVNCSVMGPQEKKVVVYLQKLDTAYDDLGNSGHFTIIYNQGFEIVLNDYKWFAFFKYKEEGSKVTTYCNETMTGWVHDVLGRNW
T1 sequence (P53634 395-463 limits assumed): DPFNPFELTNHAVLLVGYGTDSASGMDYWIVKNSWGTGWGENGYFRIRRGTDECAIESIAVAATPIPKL
Procedure: Using this assay, the IC50 value of the compound of the invention may be determined using Gly-Phe-paranitroanilide as a DPPI specific substrate.
Assay buffer: 20 mM citric acid (2.1 g citric acid), 150 mM NaCl (4.4 g NaCl) and 2 mM EDTA (370 mg EDTA) was dissolved in 500 mL H2O, and pH was adjusted to 4.5 with HCl.
Substrate: Gly-Phe-paranitroanilide (Sigma Aldrich; Cat. No G0142) was used as the substrate for determination of IC50 values. Km was 2.2 mM. The substrate was solubilized in dinnethylformamid to give a 0.2-0.5 M stock solution, which was then further diluted with stirring in assay buffer to a final concentration of 1 mM.
DPPI: Human DPPI (obtained from UNIZYME Laboratories A/S, DK-2970 Høsholm, Denmark) was stored at −20° C. in a buffer containing 2.5 mM Na-phosphate, 150 mM NaCl, 2 mM cysteamine, 50% glycerol, pH 7.0 at a concentration of 1-2 mg/mL (5-10 μM). This stock solution was diluted 500-1000 times in assay buffer to a concentration of 10-20 nM.
Assay conditions: The assay was performed in 96-well plates. Diluted enzyme (25 μL) was added to the well, followed by 25 μL of test substance in varying concentrations, and the solution was mixed. […] The absorption was measured at 405 nm at 37° C. for every 90 seconds for 12 minutes or every 20 seconds for 4 minutes. […] IC50 was determined using a 4-parameter logistic equation in a non-linear curve fitting routine.

DPPI [3] = biological target: T1, DPPI; test: Cell based DPPI inhibition assay (neutrophil elastase activity in U937 cells); set-up: endogenous in cells; host or cells: U937 cells; settings: 24 hours, elastase activity readout
Procedure: Using the cell based assay described below, the biological activity of the compounds of the invention or other DPPI inhibitors may be determined.
Neutrophil elastase enzymatic activities in U937 cells grown in the presence of DPPI inhibitors were measured by methods modified from Méthot N; Rubin J; Guay D; Beaulieu C; Ethier D; Reddy T J; Riendeau D and Percival M D (2007) 3 Biol Chem, 282, 20836-20846. U937 cells were propagated in culture media (RPMI 1640, supplemented with 10% FBS, 10 mM Hepes, 1 mM sodium pyrovate, 100 units/ml of each of penicillin and streptomycin). Cells were seeded in 12-well plates at 0.4×10^6 cells/ml in volumes of 1.5 ml per well in the presence of no or increasing concentrations of DPPI inhibitor. 12 points in duplicate in the range of 0.1 nM to 50 μM inhibitor were tested. After 24 hours cells were harvested, washed with PBS and lysed in 20 mM Tris-HCl, pH 7.5, 100 mM NaCl, 0.2% Triton X-100. […]
The activity of neutrophil elastase was determined by measuring the enzymatic release of chromogenic p-nitroaniline from the substrate MetOSuc-Ala-Ala-Pro-Val-pNA, which leads to an increase in absorbance at 405 nm. Assays were carried out in 96-well plates in a final volume of 200 μL at 37° C., and absorbance was measured 8 times during 21-35 minutes using a plate reader. IC50 was determined using a 4-parameter logistic equation in a non-linear curve fitting routine.

CYP2D6 = biological target: T2, CYP2D6 (Homo sapiens, UniProt P10635); test: Test for inhibition of CYP2D6 in Human Liver Microsomes; type: in vitro ADME; settings: pooled Human Liver Microsomes, 7 μM bufuralol; read-out: CYP inhibition IC50 CYP2D6
T2 construct: incubated with pooled Human Liver Microsomes (0.25 mg protein/mL); from tissue; host or cells: pooled human liver microsomes
T2 sequence (P10635 whole entry): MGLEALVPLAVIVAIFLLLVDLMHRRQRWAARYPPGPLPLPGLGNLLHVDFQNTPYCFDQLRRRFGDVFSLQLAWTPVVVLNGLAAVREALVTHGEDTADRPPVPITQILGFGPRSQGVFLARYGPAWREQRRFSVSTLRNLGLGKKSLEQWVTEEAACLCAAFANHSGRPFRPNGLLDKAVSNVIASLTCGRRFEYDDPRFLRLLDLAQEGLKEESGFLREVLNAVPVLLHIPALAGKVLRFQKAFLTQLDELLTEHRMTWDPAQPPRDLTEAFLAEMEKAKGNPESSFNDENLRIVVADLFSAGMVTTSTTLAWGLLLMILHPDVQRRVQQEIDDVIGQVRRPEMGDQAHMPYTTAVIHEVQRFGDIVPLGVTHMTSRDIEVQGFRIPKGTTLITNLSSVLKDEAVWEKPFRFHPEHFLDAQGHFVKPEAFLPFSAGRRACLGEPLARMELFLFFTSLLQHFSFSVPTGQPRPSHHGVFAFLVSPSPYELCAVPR
Procedure: (§5) The test for inhibition of CYP2C9, CYP2D6 and CYP3A4 enzymes was performed by Absorption System, Exton, Pa. 19341, USA according to the procedure described below.
(§6) The IC50 values of Example 1 of WO2012119941 (PZ1024) and the compound of the present invention (PZ1025) for CYP enzymes (CYP2C9, CYP2D6, and CYP3A4) in Human Liver Microsomes were measured. […] After a period of incubation, the samples were treated by the addition of protein precipitation solvent and centrifuged. CYP enzyme activities were measured by determining the formation of the CYP probe metabolites by LC-MS/MS, and the IC50 (the concentration of an inhibitor causing 50% inhibition) was estimated using GraphPad Prism® software by fitting the experimental data (percent of control activity remaining at each concentration of test compound) to a sigmoidal model and non-linear regression analysis.
(§7) The CYP enzyme activities in the Human Liver Microsomes were verified in parallel by determining the inhibition of positive inhibitors on the CYP enzyme activities (sulfaphenazole, quinidine and ketoconazole for CYP2C9, CYP2D6, and CYP3A4, respectively).

CYP3A4 = biological target: T3, CYP3A4 (Homo sapiens, UniProt P08684); test: Test for inhibition of CYP3A4 in Human Liver Microsomes; type: in vitro ADME; settings: pooled Human Liver Microsomes, 75 μM testosterone; read-out: CYP inhibition IC50 CYP3A4
T3 construct: incubated with pooled Human Liver Microsomes (0.25 mg protein/mL); from tissue; host or cells: pooled human liver microsomes
T3 sequence (P08684 whole entry): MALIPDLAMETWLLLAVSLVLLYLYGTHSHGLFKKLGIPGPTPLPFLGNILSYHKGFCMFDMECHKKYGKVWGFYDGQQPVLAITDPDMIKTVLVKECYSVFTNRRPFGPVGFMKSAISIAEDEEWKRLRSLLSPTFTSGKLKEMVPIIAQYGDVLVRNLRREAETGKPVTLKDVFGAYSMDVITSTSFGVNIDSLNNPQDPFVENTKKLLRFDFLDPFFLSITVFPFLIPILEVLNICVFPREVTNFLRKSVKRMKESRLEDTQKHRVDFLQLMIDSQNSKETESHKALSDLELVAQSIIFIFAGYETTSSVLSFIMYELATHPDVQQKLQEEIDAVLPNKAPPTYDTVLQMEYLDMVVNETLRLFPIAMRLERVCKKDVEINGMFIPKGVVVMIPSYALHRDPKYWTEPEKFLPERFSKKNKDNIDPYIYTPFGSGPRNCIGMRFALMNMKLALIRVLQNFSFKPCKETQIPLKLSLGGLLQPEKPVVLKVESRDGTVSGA
Procedure: as §5, §6, §7

CYP2C9 = biological target: T4, CYP2C9 (Homo sapiens, UniProt P11712); test: Test for inhibition of CYP2C9 in Human Liver Microsomes; type: in vitro ADME; settings: pooled Human Liver Microsomes, 6 μM diclofenac; read-out: CYP inhibition IC50 CYP2C9
T4 construct: incubated with pooled Human Liver Microsomes (0.25 mg protein/mL); from tissue; host or cells: pooled human liver microsomes
T4 sequence (P11712 whole entry): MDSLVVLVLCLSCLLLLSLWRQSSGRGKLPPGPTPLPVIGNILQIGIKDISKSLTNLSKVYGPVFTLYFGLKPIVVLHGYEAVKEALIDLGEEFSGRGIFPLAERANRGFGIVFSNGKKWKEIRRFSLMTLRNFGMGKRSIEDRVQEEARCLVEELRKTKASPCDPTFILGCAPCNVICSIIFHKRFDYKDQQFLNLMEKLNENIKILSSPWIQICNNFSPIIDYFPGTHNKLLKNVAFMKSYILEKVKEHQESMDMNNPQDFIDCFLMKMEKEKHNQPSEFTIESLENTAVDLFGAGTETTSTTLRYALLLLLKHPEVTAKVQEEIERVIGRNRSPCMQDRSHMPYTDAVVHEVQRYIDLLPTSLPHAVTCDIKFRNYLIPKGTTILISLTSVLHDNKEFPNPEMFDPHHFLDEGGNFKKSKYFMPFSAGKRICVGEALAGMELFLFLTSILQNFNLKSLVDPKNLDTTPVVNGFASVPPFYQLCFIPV
Procedure: as §5, §6, §7

[4] = Test for metabolic stability, Human Liver Microsomes; type: in vitro ADME; settings: for Metabolic stability human microsomes t½: human liver microsomes 1.0 mg/mL; for Metabolic stability human microsomes t½ / half-life at 5 μM: 5 μM test compound, NADPH; for half-life at 5 μM: human, liver microsomes, pH 7.4, human liver microsomes 1.0 mg/mL, read-out: Metabolic stability human microsomes t½
Procedure: as §1, §2, §3, §4

[5] = tested on: human lymphoblastoid TK6 cells; test: Test for cytotoxicity (relative cell proliferation, optical absorbance); type: cell-based; settings: for highest concentration that does not cross the significance threshold: TK6 strains GenM-T01 and GenM-C01, 24 hour and 48 hour time points, threshold 80% relative cell density
Procedure: The test for cytotoxicity was performed by Cyprotex Discovery Ltd. 15 Beech lane, Macclesfield, Cheshire, SK10 2DR, UK.
Two strains of cultured human lymphoblastoid TK6 cells was used, GenM-T01 and GenM-C01. A dilution series of each test compound was generated in a 96-well, black microplate with an optically clear base. The plates was analysed at 24 hour and 48 hour time points using a microplate reader, that provides measurements of light absorbance for cells and solutions in the microplates wells.
Cytotoxicity was assessed using relative cell proliferation, quantified using optical absorbance. Cytotoxic compounds are those which reduce relative cell density below a significance threshold set at 80% compared to the vehicle-treated control, at one or more test concentrations.

## CN1CCN(Cc2ccc(-c3ccc(C[C@@H](C#N)NC(=O)C4(N)CCOCC4)cc3)cc2)CC1 [PZ1025, (S)-4-amino-N-(1-cyano-2-(4′-((4-methylpiperazin-1-yl)methyl)biphenyl-4-yl)ethyl)tetrahydro-2H-pyran-4-carboxamide]
[1]; PZ1025 versus PZ1024
  half-life in mouse liver microsomes, times higher than PZ1024: more than 6 times
[1]; PZ1025 versus PZ1032
  half-life in mouse liver microsomes, times higher than PZ1032: about 2 times
[1]
  Metabolic stability mouse microsomes t½: t½ ≈ 65 min
  half-life at 5 μM: ~65 min
DPPI [2]
  IC50: 34 nM
DPPI [3]
  IC50: 11 nM and ~11 nM
CYP2D6
  IC50: > 100000 nM
CYP3A4
  IC50: > 100000 nM
CYP2C9
  IC50: > 100000 nM
[4]; PZ1025 versus PZ1024
  half-life in human liver microsomes, times higher than PZ1024: more than 5 times
[4]; PZ1025 versus PZ1032
  half-life in human liver microsomes, times higher than PZ1032: more than 5 times
[4]
  Metabolic stability human microsomes t½: t½ > 300 min
  half-life at 5 μM: > 300 min
[5]; PZ1025 versus PZ1024, TK6 cytotoxicity
  times less toxic than PZ1024: at least 5 times
[5]
  highest concentration that does not cross the significance threshold: 150 µM

## CN1CCN(S(=O)(=O)c2ccc(-c3ccc(C[C@@H](C#N)NC(=O)C4(N)CCOCC4)cc3)cc2)CC1 [PZ1032, reference compound]
[1]
  Metabolic stability mouse microsomes t½: t½ ≈ 35 min
  half-life at 5 μM: 35 min
DPPI [3]
  IC50: ~11 nM
[4]
  Metabolic stability human microsomes t½: t½ ≈ 50 min
  half-life at 5 μM: 50 min

## CN1CCN(Cc2ccc(-c3ccc(C[C@@H](C#N)NC(=O)C4(N)CCCCC4)cc3)cc2)CC1 [PZ1024, reference compound]
[1]
  Metabolic stability mouse microsomes t½: t½ ≈ 10 min
  half-life at 5 μM: ~10 min
DPPI [2]
  IC50: 37 nM
CYP2D6
  IC50: 18000 nM
CYP3A4
  IC50: > 100000 nM
CYP2C9
  IC50: > 100000 nM
[4]
  Metabolic stability human microsomes t½: t½ ≈ 55 min
  half-life at 5 μM: ~55 min
[5]
  highest concentration that does not cross the significance threshold: 15 µM

From patent US9856228B2, “Peptidyl nitril compounds as dipeptidyl peptidase I inhibitors” (Prozymex A/S, priority 2013, dated 2018)
